# Reference: patent US7179597B2, “Genetic diagnosis for QT prolongation related adverse drug reactions” (Georgetown University, priority 2000, dated 2007)
# “Also recorded” adds a separate entry of the source. Where two headings read alike, the source gives them in different places.
# Experiments:
# IKs = details: cited from earlier work
# [1] = test system: cultured neonatal rat cardiomyocytes; experiment: Spontaneous beating rate of cultured neonatal rat cardiomyocytes; type: cell-based; set-up: Reduction in beating rate / Maximum inhibition of beating activity, drug alone: dose or concentration left out as unconfirmed
# From the text: Delayed rectifier potassium channels are important components of cardiac repolarization. There are two major delayed rectifier potassium currents, IKr (rapid component) and IKs (slow component). Drugs that block these currents, particularly IKr, slow cardiac repolarization and increase the risk of developing potentially fatal cardiac arrhythmias such as Torsades de Pointes. Moreover, mutations in the genes encoding for delayed rectifier potassium channel proteins have been linked to long QT syndrome, a condition seen in patients at high risk for developing Torsades de Pointes cardiac arrhythmias and sudden death. […] Recently, however, a new compound, chromanol 293B, has been reported to be a relatively selective blocker of IKs (Busch et al., Pflug. Arch. 432: 1094–6 (1996)). In the present report, we have tested this compound using spontaneously beating cultures of neonatal rat cardiomyocytes.
# In addition to the different electrophysiological properties of IKr versus IKs that have been described by others, these currents can be distinguished pharmacologically (Sanguinetti et al., J. Gen. Physiol. 96: 195–215 (1990)). […] To determine if pharmacological blockade of delayed rectifier potassium currents influences the spontaneous beating rate of cultured neonatal rat cardiomyocytes, a dose-response curve was generated for chromanol 293B.
# [2] = cited from earlier work
# CYP2C9 = CYP2C9 (Homo sapiens, UniProt P11712); details: Table 3; cited from earlier work
# Chain of CYP2C9 (P11712 whole entry): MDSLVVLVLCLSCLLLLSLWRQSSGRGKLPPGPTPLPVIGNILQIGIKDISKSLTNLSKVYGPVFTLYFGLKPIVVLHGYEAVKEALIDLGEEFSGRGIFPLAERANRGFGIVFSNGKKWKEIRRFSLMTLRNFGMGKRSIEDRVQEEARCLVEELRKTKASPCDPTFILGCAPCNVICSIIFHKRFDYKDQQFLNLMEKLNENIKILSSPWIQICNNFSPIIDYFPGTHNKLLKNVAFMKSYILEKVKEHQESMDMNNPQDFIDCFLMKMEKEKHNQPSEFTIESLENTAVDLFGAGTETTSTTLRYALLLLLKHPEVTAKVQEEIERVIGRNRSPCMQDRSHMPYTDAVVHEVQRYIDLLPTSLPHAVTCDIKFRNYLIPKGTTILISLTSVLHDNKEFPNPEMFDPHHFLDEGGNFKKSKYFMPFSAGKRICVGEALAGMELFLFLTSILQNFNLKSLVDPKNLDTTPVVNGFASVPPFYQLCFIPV
# CYP2D6 = CYP2D6 (Homo sapiens, UniProt P10635); details: Table 3, cited from earlier work
# Chain of CYP2D6 (P10635 whole entry): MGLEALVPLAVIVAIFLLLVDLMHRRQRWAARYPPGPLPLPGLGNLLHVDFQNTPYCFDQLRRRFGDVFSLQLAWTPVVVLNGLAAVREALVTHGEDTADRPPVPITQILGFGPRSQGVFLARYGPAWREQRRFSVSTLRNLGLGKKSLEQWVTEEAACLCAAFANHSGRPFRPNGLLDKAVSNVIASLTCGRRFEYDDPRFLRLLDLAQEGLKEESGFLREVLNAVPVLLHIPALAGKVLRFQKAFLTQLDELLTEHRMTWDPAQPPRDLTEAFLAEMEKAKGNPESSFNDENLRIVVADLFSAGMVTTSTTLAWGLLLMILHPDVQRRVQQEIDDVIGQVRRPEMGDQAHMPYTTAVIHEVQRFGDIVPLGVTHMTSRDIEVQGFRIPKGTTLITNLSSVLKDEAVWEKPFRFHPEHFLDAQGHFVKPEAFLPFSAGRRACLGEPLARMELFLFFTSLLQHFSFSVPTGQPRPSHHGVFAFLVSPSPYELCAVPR
# [3] = cited from earlier work; remark: listed apart in the source
# CYP1A2 = biological target: T1, CYP1A2 (Homo sapiens, UniProt P05177); details: Table 3; cited from earlier work
# T1 sequence (P05177 1-516): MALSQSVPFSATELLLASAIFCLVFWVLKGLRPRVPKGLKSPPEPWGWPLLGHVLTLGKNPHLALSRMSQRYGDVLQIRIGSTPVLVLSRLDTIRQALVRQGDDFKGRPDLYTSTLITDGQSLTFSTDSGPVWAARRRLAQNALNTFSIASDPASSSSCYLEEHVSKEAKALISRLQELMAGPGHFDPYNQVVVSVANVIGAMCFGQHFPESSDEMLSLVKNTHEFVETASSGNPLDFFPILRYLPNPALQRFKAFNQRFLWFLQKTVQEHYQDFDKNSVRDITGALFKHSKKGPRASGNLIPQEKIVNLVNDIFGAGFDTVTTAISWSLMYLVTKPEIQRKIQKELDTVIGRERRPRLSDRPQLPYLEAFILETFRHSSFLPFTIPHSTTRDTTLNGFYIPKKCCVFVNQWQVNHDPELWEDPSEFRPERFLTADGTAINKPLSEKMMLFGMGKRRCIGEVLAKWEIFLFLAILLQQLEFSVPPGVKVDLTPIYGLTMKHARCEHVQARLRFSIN
# CYP2C19 = CYP2C19 (Homo sapiens, UniProt P33261); details: Table 3; cited from earlier work
# Chain of CYP2C19 (P33261 whole entry, the tested form may be a part): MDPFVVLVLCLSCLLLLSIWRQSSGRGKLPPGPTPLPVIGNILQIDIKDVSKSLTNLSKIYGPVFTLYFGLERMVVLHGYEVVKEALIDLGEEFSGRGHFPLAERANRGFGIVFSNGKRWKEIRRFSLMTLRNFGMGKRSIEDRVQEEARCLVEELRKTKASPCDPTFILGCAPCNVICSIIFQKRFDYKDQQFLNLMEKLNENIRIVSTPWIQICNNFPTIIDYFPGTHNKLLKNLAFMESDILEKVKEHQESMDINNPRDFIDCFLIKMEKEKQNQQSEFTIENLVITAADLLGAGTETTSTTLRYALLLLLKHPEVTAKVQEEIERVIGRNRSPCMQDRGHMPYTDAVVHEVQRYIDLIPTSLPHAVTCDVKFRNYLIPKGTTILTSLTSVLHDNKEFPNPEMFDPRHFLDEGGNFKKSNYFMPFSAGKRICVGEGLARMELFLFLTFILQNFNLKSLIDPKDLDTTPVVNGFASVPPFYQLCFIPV
# Ito = experiment: Whole-cell voltage clamp of transient outward current Ito in rabbit ventricular myocytes; type: cell-based; details: 5 μmol/L, 5 minutes superfusion
# IK1 = experiment: Whole-cell voltage clamp of inward rectifier IK1 in rabbit ventricular myocytes; type: cell-based; details: 5 μmol/L, 5 minutes
# CYP3A = details: Table 3; cited from earlier work
# P-gp = P-gp (Homo sapiens, UniProt P08183); details: Atadja et al. 1998; cited from earlier work
# L-type ICa = L-type ICa (Oryctolagus cuniculus, UniProt P15381); details: 10 μmol/L
# Chain of L-type ICa (P15381 whole entry, other chains not shown): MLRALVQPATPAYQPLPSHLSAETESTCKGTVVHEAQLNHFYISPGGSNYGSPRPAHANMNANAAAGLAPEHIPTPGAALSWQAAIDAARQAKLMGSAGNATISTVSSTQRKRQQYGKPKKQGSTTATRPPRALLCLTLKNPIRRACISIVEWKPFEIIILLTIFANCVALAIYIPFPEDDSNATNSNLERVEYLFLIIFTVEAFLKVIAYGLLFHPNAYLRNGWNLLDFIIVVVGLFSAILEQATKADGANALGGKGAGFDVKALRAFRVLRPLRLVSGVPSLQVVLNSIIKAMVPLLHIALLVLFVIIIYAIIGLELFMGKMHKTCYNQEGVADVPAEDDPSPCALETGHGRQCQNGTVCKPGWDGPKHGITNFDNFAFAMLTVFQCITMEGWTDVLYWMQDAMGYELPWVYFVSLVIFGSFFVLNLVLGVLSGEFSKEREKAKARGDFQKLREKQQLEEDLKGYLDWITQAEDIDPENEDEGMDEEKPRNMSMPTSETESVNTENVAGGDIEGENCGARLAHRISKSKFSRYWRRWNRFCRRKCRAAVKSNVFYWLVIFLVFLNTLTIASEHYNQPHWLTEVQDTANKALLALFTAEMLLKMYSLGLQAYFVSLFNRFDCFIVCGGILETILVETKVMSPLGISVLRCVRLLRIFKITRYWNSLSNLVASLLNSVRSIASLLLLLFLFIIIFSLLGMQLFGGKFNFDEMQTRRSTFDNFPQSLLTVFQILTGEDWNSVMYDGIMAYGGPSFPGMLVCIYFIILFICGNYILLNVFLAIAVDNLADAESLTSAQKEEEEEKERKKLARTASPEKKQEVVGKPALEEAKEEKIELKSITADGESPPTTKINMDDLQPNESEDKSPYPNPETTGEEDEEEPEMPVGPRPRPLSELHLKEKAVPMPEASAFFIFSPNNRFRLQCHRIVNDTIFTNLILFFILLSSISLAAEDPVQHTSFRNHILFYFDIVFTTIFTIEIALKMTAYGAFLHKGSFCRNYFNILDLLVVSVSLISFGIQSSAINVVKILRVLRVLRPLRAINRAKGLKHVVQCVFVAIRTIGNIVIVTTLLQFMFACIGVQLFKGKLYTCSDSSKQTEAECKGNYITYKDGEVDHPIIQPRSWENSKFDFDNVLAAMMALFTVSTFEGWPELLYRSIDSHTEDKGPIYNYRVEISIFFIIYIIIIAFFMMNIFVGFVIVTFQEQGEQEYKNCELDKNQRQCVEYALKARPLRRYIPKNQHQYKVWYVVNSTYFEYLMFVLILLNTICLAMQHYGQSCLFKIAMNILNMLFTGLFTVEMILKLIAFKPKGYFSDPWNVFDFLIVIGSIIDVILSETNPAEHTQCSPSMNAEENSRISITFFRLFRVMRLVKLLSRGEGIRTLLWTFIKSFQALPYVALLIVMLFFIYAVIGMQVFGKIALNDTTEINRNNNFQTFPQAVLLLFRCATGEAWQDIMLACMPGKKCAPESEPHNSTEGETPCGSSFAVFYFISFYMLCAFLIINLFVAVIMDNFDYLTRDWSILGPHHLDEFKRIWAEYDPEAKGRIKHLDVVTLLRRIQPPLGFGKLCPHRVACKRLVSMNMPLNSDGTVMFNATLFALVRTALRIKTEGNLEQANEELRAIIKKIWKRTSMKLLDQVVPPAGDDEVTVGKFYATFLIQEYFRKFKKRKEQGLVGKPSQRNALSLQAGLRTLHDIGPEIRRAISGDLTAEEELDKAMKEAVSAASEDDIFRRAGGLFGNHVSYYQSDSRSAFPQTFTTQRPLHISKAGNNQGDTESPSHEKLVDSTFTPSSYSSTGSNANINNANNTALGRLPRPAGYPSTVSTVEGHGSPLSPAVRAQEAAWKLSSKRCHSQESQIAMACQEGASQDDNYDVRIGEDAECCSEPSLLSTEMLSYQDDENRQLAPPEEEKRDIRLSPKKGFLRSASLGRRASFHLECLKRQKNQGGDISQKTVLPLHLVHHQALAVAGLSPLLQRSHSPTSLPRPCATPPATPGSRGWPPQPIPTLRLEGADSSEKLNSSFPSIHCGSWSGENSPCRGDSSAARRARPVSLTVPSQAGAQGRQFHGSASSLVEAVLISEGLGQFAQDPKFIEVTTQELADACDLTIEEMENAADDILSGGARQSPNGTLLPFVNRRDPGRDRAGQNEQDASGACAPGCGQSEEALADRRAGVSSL
# Chain of L-type ICa (P13806 27-1106 partner, other chains not shown): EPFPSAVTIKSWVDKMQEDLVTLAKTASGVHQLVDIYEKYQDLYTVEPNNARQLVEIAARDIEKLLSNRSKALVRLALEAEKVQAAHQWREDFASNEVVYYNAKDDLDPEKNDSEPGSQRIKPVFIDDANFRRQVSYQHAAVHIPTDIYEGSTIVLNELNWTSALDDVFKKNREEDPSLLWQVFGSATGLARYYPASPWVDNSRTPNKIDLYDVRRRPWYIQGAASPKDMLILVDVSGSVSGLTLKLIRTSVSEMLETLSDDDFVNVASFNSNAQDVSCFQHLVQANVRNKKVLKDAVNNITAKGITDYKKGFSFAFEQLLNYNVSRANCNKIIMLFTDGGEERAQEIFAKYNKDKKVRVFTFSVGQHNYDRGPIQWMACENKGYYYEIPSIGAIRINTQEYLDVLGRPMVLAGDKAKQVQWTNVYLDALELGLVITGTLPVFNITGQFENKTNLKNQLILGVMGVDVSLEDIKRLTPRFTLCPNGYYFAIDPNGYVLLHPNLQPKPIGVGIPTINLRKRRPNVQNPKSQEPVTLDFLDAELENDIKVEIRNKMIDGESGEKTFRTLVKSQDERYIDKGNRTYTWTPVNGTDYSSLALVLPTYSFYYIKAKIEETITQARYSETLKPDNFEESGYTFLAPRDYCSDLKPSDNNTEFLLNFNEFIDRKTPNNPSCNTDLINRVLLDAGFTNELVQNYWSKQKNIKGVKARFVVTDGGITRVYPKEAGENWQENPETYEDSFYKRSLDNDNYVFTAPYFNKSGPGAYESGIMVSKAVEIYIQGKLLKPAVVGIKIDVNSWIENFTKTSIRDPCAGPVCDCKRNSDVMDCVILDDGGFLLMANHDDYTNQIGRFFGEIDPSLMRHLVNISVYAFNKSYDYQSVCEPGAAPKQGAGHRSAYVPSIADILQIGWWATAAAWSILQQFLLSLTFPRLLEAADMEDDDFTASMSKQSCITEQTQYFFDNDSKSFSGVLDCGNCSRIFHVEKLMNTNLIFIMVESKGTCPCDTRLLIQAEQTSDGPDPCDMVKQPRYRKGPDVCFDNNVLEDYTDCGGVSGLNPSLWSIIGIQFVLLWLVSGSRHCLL
# [4] = test system: rabbit ventricular myocytes; details: 3.3 μmol/L, about 4–5 min; before drug 341±49 ms; n=16, p>0.05
# IKr = biological target: T2, IKr (Oryctolagus cuniculus, UniProt Q8WNY2); details: superfusion with 1–2.5 μmol/L (Liu et al. 1998); cited from earlier work
# T2 sequence (Q8WNY2 1-1161): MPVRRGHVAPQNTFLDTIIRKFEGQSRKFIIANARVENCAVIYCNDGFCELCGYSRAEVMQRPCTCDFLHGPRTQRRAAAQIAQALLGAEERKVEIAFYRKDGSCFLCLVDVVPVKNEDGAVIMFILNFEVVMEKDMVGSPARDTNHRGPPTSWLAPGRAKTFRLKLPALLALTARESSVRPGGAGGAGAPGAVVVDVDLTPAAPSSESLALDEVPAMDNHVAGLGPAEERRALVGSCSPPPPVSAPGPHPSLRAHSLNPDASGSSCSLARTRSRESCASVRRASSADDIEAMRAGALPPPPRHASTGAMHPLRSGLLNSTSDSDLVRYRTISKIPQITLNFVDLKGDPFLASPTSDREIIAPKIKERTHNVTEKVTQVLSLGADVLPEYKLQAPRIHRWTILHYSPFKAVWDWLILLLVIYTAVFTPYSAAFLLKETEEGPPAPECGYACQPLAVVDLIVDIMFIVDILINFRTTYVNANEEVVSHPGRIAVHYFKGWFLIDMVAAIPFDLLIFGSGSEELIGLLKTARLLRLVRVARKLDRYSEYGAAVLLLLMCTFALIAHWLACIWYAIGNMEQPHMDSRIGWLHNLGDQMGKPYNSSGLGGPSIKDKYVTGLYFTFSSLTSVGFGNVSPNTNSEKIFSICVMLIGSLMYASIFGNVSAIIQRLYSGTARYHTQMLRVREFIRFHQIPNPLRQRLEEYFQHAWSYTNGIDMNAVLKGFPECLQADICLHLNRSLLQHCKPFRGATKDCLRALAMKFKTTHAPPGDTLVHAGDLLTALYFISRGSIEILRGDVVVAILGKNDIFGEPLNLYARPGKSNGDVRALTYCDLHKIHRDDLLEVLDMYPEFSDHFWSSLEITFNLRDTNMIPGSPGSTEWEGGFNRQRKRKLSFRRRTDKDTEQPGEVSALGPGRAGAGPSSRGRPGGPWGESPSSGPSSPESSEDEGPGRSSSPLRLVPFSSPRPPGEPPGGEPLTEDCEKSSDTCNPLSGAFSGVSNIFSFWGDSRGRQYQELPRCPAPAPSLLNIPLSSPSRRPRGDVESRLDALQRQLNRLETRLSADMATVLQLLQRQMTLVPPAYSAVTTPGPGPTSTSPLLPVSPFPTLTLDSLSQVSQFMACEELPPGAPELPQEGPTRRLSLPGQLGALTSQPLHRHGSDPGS
structure (smiles),measurement,setting,value
CCS(=O)(=O)N(C)[C@H]1c2cc(C#N)ccc2OC(C)(C)[C@@H]1O (racemic) [chromanol 293B],Concentrations up to which IKs is selectively blocked,IKs; Busch et al. 1996,10 to 30 µM
same,Concentration required to achieve complete blockade of IKs,IKs; guinea pig ventricular myocytes (Busch et al. 1996),100 µM
same,"Maximum inhibition of beating activity, drug alone",[1]; 293B alone,50%
same,Effect on spontaneous beating rate,[1]; dose-response curve,dose-dependent decrease in beating rate
same,Reduction in beating rate,"[1]; highest drug concentration tested, relative to control",about 50%
CN(C)CCC=C1c2ccccc2CCc2ccccc21 [Amitriptyline],QT,"[2]; Table 2, drug labeling",Yes
same,QT,[2]; Table 3,Yes
same,"Interactions: cytochrome P-450 isoform 2C9, substrate or inhibitor",CYP2C9,Substrate
same,"Interactions: cytochrome P-450 isoform 2D6, substrate or inhibitor",CYP2D6,Substrate
same,TdP,"[3]; Table 2, FDA / medical literature",Yes
same,TdP,[3]; Table 3,Yes
same,"Interactions: cytochrome P-450 isoform 1A2, substrate or inhibitor",CYP1A2,Substrate
same,"Interactions: cytochrome P-450 isoform 2C19, substrate or inhibitor",CYP2C19,Substrate
CN(C)CCCN1c2ccccc2CCc2ccc(Cl)cc21 [Clomipramine],"Interactions: cytochrome P-450 isoform 1A2, substrate or inhibitor",CYP1A2,Substrate
same,"Interactions: cytochrome P-450 isoform 2C19, substrate or inhibitor",CYP2C19,Substrate
Cc1cccc(CCN2CCC(C(=O)c3ccc(NS(C)(=O)=O)cc3)CC2)n1 [E-4031],Effect on transient outward current (Ito),Ito,no effect; also recorded: without affecting
same,Effect on IK1 outward (holding) current,IK1; at −40 mV,without affecting; also recorded: no effect
same,Effect on IK1 inward current,IK1; recorded at −120 mV,little effect
same,"Maximum inhibition of beating activity, drug alone",[1]; 5–10 mnM E-4031 alone,50%
O=C(CCCN1CCC(O)(c2ccc(Cl)cc2)CC1)c1ccc(F)cc1 [Haloperidol],"Interactions: cytochrome P-450 isoform 3A, substrate or inhibitor",CYP3A,Substrate
same,"Interactions: cytochrome P-450 isoform 2D6, substrate or inhibitor",CYP2D6; CYP2D6 inhibitor,Inhibitor
same,"Interactions: cytochrome P-450 isoform 2D6, substrate or inhibitor",CYP2D6; CYP2D6 substrate,Substrate
same,"Interactions: cytochrome P-450 isoform 1A2, substrate or inhibitor",CYP1A2,Substrate
C/C=C/C[C@@H](C)C(=O)[C@H]1C(=O)N[C@@H](C(C)C)C(=O)N(C)CC(=O)N(C)[C@@H](CC(C)C)C(=O)N[C@@H](C(C)C)C(=O)N(C)[C@@H](CC(C)C)C(=O)N[C@@H](C)C(=O)N[C@H](C)C(=O)N(C)[C@@H](CC(C)C)C(=O)N(C)[C@@H](CC(C)C)C(=O)N(C)[C@@H](C(C)C)C(=O)N1C [PSC-833],Effect on P-gp,P-gp,potently and specifically inhibits
CC/C(=C(\c1ccccc1)c1ccc(OCCN(C)C)cc1)c1ccccc1 [Tamoxifen],Inhibition of ICa,L-type ICa,almost complete inhibition; also recorded: marked inhibition
same,APD measured at 90% repolarization (APD90) after superfusion,[4],332 ± 19 ms
CN(CCOc1ccc(NS(C)(=O)=O)cc1)CCc1ccc(NS(C)(=O)=O)cc1 [dofetilide],Effect on IKr tail current,IKr,abolished
